Measurements reported in patent US20100272797A1, “Pharmaceutical Composition for Treating Hepatitis C Virus Infection Comprising HMG-COA Reductase Inhibitor and Bile Acid” (HANALL PHARMACEUTICAL COMPANY, LTD., priority 2007, published 2010).

Tests used:
EMC virus = experiment: Test Example 1: inhibitory effects on EMCV in A549 cells, MTT assay; type: cell-based; details: A549 cells infected with EMC virus, IFN 20 IU/ml, fluvastatin 5 μM, UDCA 61.9 μM as named
[1] = human, in vivo; cited from earlier work
[2] = in vivo, absorbed by passive diffusion; cited from earlier work

SMILES	Average (MTT absorbance) (EMC virus; absorbance 550-600 nm, N 10)	Survival rate (antivirus activity) (EMC virus; vehicle = 0.0)	hepatitis patients with continuous increase in transaminase levels [1]	share of such patients with increase in blood transaminase levels within 12 weeks after administration [1]	transaminase level elevation relative to upper limit of normal [1]	absorbed drug excreted in the form of bile [2]
CC(C)n1c(/C=C/C(O)CC(O)CC(=O)O)c(-c2ccc(F)cc2)c2ccccc21 (racemic) [Fluvastatin, [R,S-(E)]-(±)-7-[3-(4-fluorophenyl)-1-(1-methylethyl)-1H-indol-2-yl]-3,5-dihydroxy-6-heptanoate]	0.8638	1.7	about 1.1%	At least 90%	at least 3 times the upper limit of normal	–
C[C@H](CCC(=O)O)[C@H]1CC[C@H]2[C@@H]3[C@@H](O)C[C@@H]4C[C@H](O)CC[C@]4(C)[C@H]3CC[C@]12C [ursodeoxycholic acid]	–	–	–	–	–	about 50%
